# Test results taken from patent US10173991B2, “Sulfone amide linked benzothiazole inhibitors of endothelial lipase” (BRISTOL-MYERS SQUIBB COMPANY, priority 2014, dated 2019).
# Target: Endothelial lipase (EL) (Homo sapiens (Human), UniProt Q9Y5X9)
# Test: Endothelial lipase (EL) enzymatic assay with fluorescent substrate A10070 in DMPG vesicles
# Type: biochemical
# Procedure, shortened: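 EL from conditioned medium of HT-1080 cells engineered to overexpress endogenous EL; HL partially purified from conditioned medium of HL-overexpressing COS cells. Enzyme preincubated with compound 30 min at 37° C in 50 mM HEPES pH 8.0, 50 mM NaCl, 1 mM CaCl2; DMPG vesicles carrying FRET substrate (0.11 mole fraction) then added.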
# Endothelial lipase (EL), sequence (Q9Y5X9 21-500): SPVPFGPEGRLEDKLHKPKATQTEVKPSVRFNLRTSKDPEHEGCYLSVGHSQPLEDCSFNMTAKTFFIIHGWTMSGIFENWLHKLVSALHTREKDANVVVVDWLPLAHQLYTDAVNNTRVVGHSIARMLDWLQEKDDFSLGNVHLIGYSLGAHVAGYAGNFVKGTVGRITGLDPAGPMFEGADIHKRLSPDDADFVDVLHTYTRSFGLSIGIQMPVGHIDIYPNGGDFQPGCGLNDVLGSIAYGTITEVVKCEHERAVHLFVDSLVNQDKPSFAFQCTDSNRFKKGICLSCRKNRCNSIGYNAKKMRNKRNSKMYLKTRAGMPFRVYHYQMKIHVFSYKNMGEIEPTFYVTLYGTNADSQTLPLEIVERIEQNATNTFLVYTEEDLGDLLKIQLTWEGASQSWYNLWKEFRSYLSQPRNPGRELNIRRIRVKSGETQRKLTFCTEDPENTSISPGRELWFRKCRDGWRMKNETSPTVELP
row,IC50 [nM],SMILES
1,188,"COCCS(=O)(=O)C(C(=O)NCC(=O)NC1CC1)c1nc2ccc(-c3cccc(Cl)n3)cc2s1 (stereo not shown) [Example 312, 2-[6-(6-chloropyridin-2-yl)-1,3-benzothiazol-2-yl]-N-[(cyclopropyl-carbamoyl)methyl]-2-(2-methoxyethane-sulfonyl)acetamide]"
2,52,COCCS(=O)(=O)C(C(=O)NCC(=O)NC1CC1)c1nc2ccc(-c3cncc(Cl)c3)cc2s1 (stereo not shown) [Example 304]
3,57,"CC(C)CS(=O)(=O)C(C(=O)NCC(=O)NC1CC1)c1nc2ccc(-c3ccc(F)nc3)cc2s1 (stereo not shown) [Example 516, N-[(cyclopropyl-carbamoyl)methyl]-2-[6-(6-fluoropyridin-3-yl)-1,3-benzothiazol-2-yl]-2-(2-methylpropane-sulfonyl)acetamide]"
4,28,"COCCS(=O)(=O)C(C(=O)NCC(=O)NC1CC1)c1nc2cc(-c3ccc(NC(=O)OC)cc3)ccc2s1 (stereo not shown) [Example 104, methyl N-{4-[2-({[(cyclopropyl-carbamoyl)methyl]carbamoyl}(2-methoxyethane-sulfonyl)methyl)-1,3-benzothiazol-5-yl]phenyl} carbamate]"
5,23,"COCCNC(=O)c1ccc(-c2ccc3nc(C(C(=O)NCC(=O)NC4CC4)S(=O)(=O)CCOC)sc3c2)cc1OC (stereo not shown) [Example 409, 4-[2-({[(cyclopropyl-carbamoyl)methyl]carbamoyl}(2-methoxyethane-sulfonyl)methyl)-1,3-benzothiazol-6-yl]-2-methoxy-N-(2-methoxyethyl) benzamide]"
6,4,CC(C)n1cc(-c2cc3sc(C(C(=O)NCC(=O)NC4CC4)S(C)(=O)=O)nc3cc2OC(F)F)ccc1=O (stereo not shown) [Example 606]
7,3,"CS(=O)(=O)C(C(=O)NCC(=O)NC1CC1)c1nc2cc(OC(F)F)c(-c3cccc(-n4cccn4)c3)cc2s1 (stereo not shown) [Example 605, N-[(cyclopropyl-carbamoyl)methyl]-2-[5-(difluoromethoxy)-6-[3-(1H-pyrazol-1-yl)phenyl]-1,3-benzothiazol-2-yl]-2-methanesulfonyl-acetamide]"
8,17,"CC(=O)Nc1cccc(-c2cc3sc(C(C(=O)NCC(=O)NC4CC4)S(C)(=O)=O)nc3cc2F)c1 (stereo not shown) [Example 116, N-[(cyclopropyl-carbamoyl)methyl]-2-[6-(3-acetamidophenyl)-5-fluoro-1,3-benzothiazol-2-yl]-2-methanesulfonyl-acetamide]"
9,14,"CC(=O)Nc1ccc(-c2ccc3nc(C(C(=O)NCC(=O)NC4CC4)S(C)(=O)=O)sc3c2)cc1 (stereo not shown) [Example 102, N-[(cyclopropyl-carbamoyl)methyl]-2-[6-(4-acetamidophenyl)-1,3-benzothiazol-2-yl]-2-methanesulfonyl-acetamide]"
10,11,"COCCS(=O)(=O)C(C(=O)NCC(=O)NC1CC1)c1nc2cc(F)c(-c3ccc4c(c3)CCN4C(C)=O)cc2s1 (stereo not shown) [Example 416, 2-[6-(1-acetyl-2,3-dihydro-1H-indol-5-yl)-5-fluoro-1,3-benzothiazol-2-yl]-N-[(cyclopropyl-carbamoyl)methyl]-2-(2-methoxyethane-sulfonyl)acetamide]"
11,7,"COCCS(=O)(=O)C(C(=O)NCC(=O)NC1CC1)c1nc2cc(F)c(-c3ccc(C(=O)NCCC#N)cc3)cc2s1 (stereo not shown) [Example 42, N-(2-cyanoethyl)-4-[2-({[(cyclopropyl-carbamoyl)methyl]carbamoyl}(2-methoxyethane-sulfonyl)methyl)-5-fluoro-1,3-benzothiazol-6-yl] benzamide]"
12,135,"COCCS(=O)(=O)C(C(=O)NCC(=O)NC1CC1)c1nc2ccc(-c3cnc(Cl)n3C)cc2s1 (stereo not shown) [Example 345, 2-[6-(2-chloro-1-methyl-1H-imidazol-5-yl)-1,3-benzothiazol-2-yl]-N-[(cyclopropyl-carbamoyl)methyl]-2-(2-methoxyethane-sulfonyl)acetamide]"
13,160,"COCCS(=O)(=O)C(C(=O)NCC(=O)NC1CC1)c1nc2ccc(-c3ccc(F)nc3F)cc2s1 (stereo not shown) [Example 302, N-[(cyclopropyl-carbamoyl)methyl]-2-[6-(2,6-difluoropyridin-3-yl)-1,3-benzothiazol-2-yl]-2-(2-methoxyethane-sulfonyl)acetamide]"
